Measured values from patent US20250114387A1, “PHARMACEUTICAL COMPOSITION COMPRISING ENAVOGLIFLOZIN FOR PREVENTING OR TREATING OBESITY IN CANINE ANIMALS” (DAEWOONG PHARMACEUTICAL CO., LTD., priority 2022, published 2025).

Tests used:
[1] = tested on: obese dogs; test: Clinical trial in obese dogs: BCS, body weight, chest and waist circumference, resting energy requirement, fat thickness, body fat; type: in vivo
Description: Adult dogs which were naturally obese but otherwise healthy were selected regardless of breed, sex, and altered status, and informed consent was obtained from the dog owners for participation in the clinical trial.
As a result of physical examination of all dogs (including body weight and BCS (a total of 9 levels), FIG. 1 and Table 1), those diagnosed as obese were selected. The BCS used to select dogs is classified into a total of 9 levels, and dogs with a BCS of level 6 or higher were selected, and detailed criteria are presented in Table 1 and FIG. 1.
(§1) A total of 20 dogs were selected and divided into 4 groups with 5 dogs in each group: a normal obese control (OC); hereinafter, referred to as a control (OC)), an enavogliflozin 0.2-administered group, an enavogliflozin 0.5-administered group, and an enavogliflozin 1-administered group. The control was fed regular feed, and the enavogliflozin-administered groups were fed regular feed supplemented with enavogliflozin at doses of 0.2, 0.5, or 1 mg/kg, respectively. The feed was supplemented with enavogliflozin once a day for 8 weeks and given orally.
Body weights (BW), chest circumferences, and waist circumferences were measured immediately before the first intake of enavogliflozin-supplemented feed, and once every two weeks for the next 10 weeks. The chest circumferences and waist circumferences were measured four times each at the thickest part of the chest and the thinnest part between the chest and hind legs, and an average size was calculated. Resting energy requirement (RER) was calculated using Equation 1 in the reference document (Brooks et al., Journal of the American Animal Hospital Association 50, 1-11. (2014)).
Fat thicknesses were evaluated by measuring the perpendicular distance from the T10 spinal process to the skin by radiography (Titan 2000 X-ray system, COMED Medical Systems Co., Ltd., Seoul, Korea) on the first day of enavogliflozin administration, and on weeks 4, 8, and 10 of administration. Body fat was measured with a body fat meter every two weeks for a total of 10 weeks after the start of enavogliflozin administration.

[2] = tested on: obese dogs; test: Clinical trial in obese dogs: serum biochemical parameters; type: in vivo; details: for ALB / ALP / ALT / AST / BUN / CPK / CRE / GGT / Glu / TC / TP / TG: serum
Description: as §1
Biological analysis was performed as follows. A portion of the blood collected on the day of the test was transferred to a vacuum tube containing a coagulation activator, left at room temperature for 15 to 20 minutes to solidify, and then centrifuged at 3000 rpm, thereby obtaining serum. Serum biochemical parameters were evaluated using a Hitachi 7180 device (Hitachi, Tokyo, Japan). The evaluated biochemical parameters are aspartate aminotransferase (AST), alanine aminotransferase (ALT), alkaline phosphatase (ALP), creatine phosphokinase (CPK), total bilirubin (TBIL), glucose (GLU), total cholesterol (TC), triglycerides (TG), total protein (TP), albumin (ALB), gamma-glutamyl transpeptidase (GGT), blood urea nitrogen (BUN), creatinine (CRE), inorganic phosphorus (IP), calcium (Ca), and C-reactive protein (CRP).

[3] = 0.2 mg/kg once a day oral for 8 weeks, week 0
[4] = 0.2 mg/kg once a day oral for 8 weeks, week 2
[5] = 0.2 mg/kg once a day oral for 8 weeks, week 4
[6] = 0.2 mg/kg once a day oral for 8 weeks, week 6
[7] = 0.2 mg/kg once a day oral for 8 weeks, week 8
[8] = 0.2 mg/kg once a day oral for 8 weeks, week 10
[9] = 0.5 mg/kg once a day oral for 8 weeks, week 0
[10] = 0.5 mg/kg once a day oral for 8 weeks, week 2
[11] = 0.5 mg/kg once a day oral for 8 weeks, week 4
[12] = 0.5 mg/kg once a day oral for 8 weeks, week 6
[13] = 0.5 mg/kg once a day oral for 8 weeks, week 8
[14] = 0.5 mg/kg once a day oral for 8 weeks, week 10
[15] = 1 mg/kg once a day oral for 8 weeks, week 0
[16] = 1 mg/kg once a day oral for 8 weeks, week 2
[17] = 1 mg/kg once a day oral for 8 weeks, week 4
[18] = 1 mg/kg once a day oral for 8 weeks, week 6
[19] = 1 mg/kg once a day oral for 8 weeks, week 8
[20] = 1 mg/kg once a day oral for 8 weeks, week 10
[21] = all enavogliflozin-administered groups
[22] = obese dogs, 0.2 mg/kg once a day oral for 8 weeks
[23] = obese dogs, 0.5 mg/kg once a day oral for 8 weeks
[24] = obese dogs, 1 mg/kg once a day oral for 8 weeks

SMILES: OC[C@H]1O[C@@H](c2cc(Cc3ccc(C4CC4)cc3)c(Cl)c3c2CCO3)[C@H](O)[C@@H](O)[C@@H]1O [Enavogliflozin, enavogliflozin]
- body fat percentage, rank among groups ([1]; 0.2 mg/kg): lowest
- Change rates of chest circumference [1, 3]: 100.00 ± 0.00%
- Change rates of resting energy requirement [1, 3]: 100.00 ± 0.00%
- Change rates of waist circumference [1, 3]: 100.00 ± 0.00%
- Change rates of chest circumference [1, 4]: 99.20 ± 3.44%
- Change rates of resting energy requirement [1, 4]: 96.98 ± 2.69%
- Change rates of waist circumference [1, 4]: 100.53 ± 4.71%
- Change rates of chest circumference [1, 5]: 97.16 ± 2.74%
- Change rates of resting energy requirement [1, 5]: 93.41 ± 5.79%
- Change rates of waist circumference [1, 5]: 97.39 ± 12.15%
- Change rates of chest circumference [1, 6]: 95.08 ± 3.96%
- Change rates of resting energy requirement [1, 6]: 95.21 ± 4.10%
- Change rates of waist circumference [1, 6]: 98.96 ± 15.47%
- Change rates of chest circumference [1, 7]: 96.08 ± 2.60%
- Change rates of resting energy requirement [1, 7]: 94.64 ± 3.59 %
- Change rates of waist circumference [1, 7]: 98.89 ± 11.98%
- Change rates of chest circumference [1, 8]: 99.18 ± 3.01%
- Change rates of resting energy requirement [1, 8]: 96.15 ± 4.75%
- Change rates of waist circumference [1, 8]: 101.98 ± 10.78%
- BCS compared to the control (OC) ([1]; 0.2 mg/kg, at 4, 8, and 10 weeks after the start of administration, p<0.05): significantly lower than the control (OC)
- resting energy requirement (RER) compared to the control (OC) ([1]; 0.2 mg/kg, at 4 weeks and 8 weeks after the start of administration, p<0.05): significantly lower
- body weight compared to the control (OC) ([1]; 0.2 mg/kg, from 4 weeks after the start of administration, p<0.05): significantly lower than the control (OC)
- fat thickness change, significance ([1]; 0.2 mg/kg, week 8 and week 10): significant at week 8 and week 10
- body weight ([1]; 0.5 mg/kg): decreasing at week 2 and week 4 of the trial and then slowly increasing
- Change rates of chest circumference [1, 9]: 100.00 ± 0.00%
- Change rates of resting energy requirement [1, 9]: 100.00 ± 0.00%
- Change rates of waist circumference [1, 9]: 100.00 ± 0.00%
- Change rates of chest circumference [1, 10]: 98.19 ± 4.31%
- Change rates of resting energy requirement [1, 10]: 98.63 ± 0.72%
- Change rates of waist circumference [1, 10]: 99.57 ± 1.71%
- Change rates of chest circumference [1, 11]: 97.16 ± 3.23%
- Change rates of resting energy requirement [1, 11]: 97.93 ± 1.00%
- Change rates of waist circumference [1, 11]: 98.45 ± 4.94%
- Change rates of chest circumference [1, 12]: 95.60 ± 4.55%
- Change rates of resting energy requirement [1, 12]: 97.54 ± 2.73%
- Change rates of waist circumference [1, 12]: 96.30 ± 3.83%
- Change rates of chest circumference [1, 13]: 93.90 ± 3.11%
- Change rates of resting energy requirement [1, 13]: 96.92 ± 2.00%
- Change rates of waist circumference [1, 13]: 93.84 ± 5.54%
- Change rates of chest circumference [1, 14]: 96.43 ± 2.76%
- Change rates of resting energy requirement [1, 14]: 98.79 ± 2.30%
- Change rates of waist circumference [1, 14]: 96.00 ± 4.72%
- BCS ([1]; 0.5 mg/kg, entire experimental period): decreased during the entire experimental period
- Change rates of chest circumference [1, 15]: 100.00 ± 0.00%
- Change rates of resting energy requirement [1, 15]: 100.00 ± 0.00%
- Change rates of waist circumference [1, 15]: 100.00 ± 0.00%
- Change rates of chest circumference [1, 16]: 94.79 ± 6.67%
- Change rates of resting energy requirement [1, 16]: 97.75 ± 2.32%
- Change rates of waist circumference [1, 16]: 95.97 ± 11.67%
- Change rates of chest circumference [1, 17]: 99.81 ± 2.43%
- Change rates of resting energy requirement [1, 17]: 98.11 ± 2.18%
- Change rates of waist circumference [1, 17]: 99.18 ± 8.09%
- Change rates of chest circumference [1, 18]: 100.54 ± 4.98%
- Change rates of resting energy requirement [1, 18]: 98.95 ± 2.07%
- Change rates of waist circumference [1, 18]: 103.75 ± 10.54%
- Change rates of chest circumference [1, 19]: 99.20 ± 4.49%
- Change rates of resting energy requirement [1, 19]: 99.19 ± 4.05%
- Change rates of waist circumference [1, 19]: 99.76 ± 12.53%
- Change rates of chest circumference [1, 20]: 100.24 ± 5.15%
- Change rates of resting energy requirement [1, 20]: 99.97 ± 6.15%
- Change rates of waist circumference [1, 20]: 101.33 ± 14.44%
- BCS compared to the control (OC) ([1]; 1 mg/kg, at the end of the experiment): lower than the control (OC) at the end of the experiment
- BCS compared to the control (OC) ([1]; 1 mg/kg, during the experiment): slightly increased compared to the control (OC)
- BCS, body weight, body fat percentage, fat thickness, and chest and waist circumferences ([1]; 8-week administration): reduced
- fat thickness ([1]; all administration groups (0.2, 0.5, 1 mg/kg)): decreased in all administration groups
- chest circumference [1, 21]: decreased
- waist circumference [1, 21]: decreased
- body fat percentage ([1]; all groups (0.2, 0.5, 1 mg/kg)): no significant differences
- anti-obesity results, comparison of doses ([1]; feed supplemented with 0.2 mg/kg): most effective results
- C-reactive protein (CRP) compared to the control (OC) ([2]; obese dogs, 0.2 mg/kg): significantly decreased
- alanine aminotransferase (ALT) compared to the control (OC) ([2]; obese dogs, 0.2 mg/kg): significantly decreased
- alkaline phosphatase (ALP) compared to the control (OC) ([2]; obese dogs, 0.2 mg/kg): significantly decreased
- creatine phosphokinase (CPK) compared to the control (OC) ([2]; obese dogs, 0.2 mg/kg): significantly decreased
- serum gamma-glutamyl transpeptidase (GGT) compared to the control (OC) ([2]; obese dogs, 0.2 mg/kg): significantly decreased
- serum total cholesterol (TC) compared to the control (OC) ([2]; obese dogs, 0.2 mg/kg): lower than those of the control (OC)
- triglyceride (TG) concentration compared to the control (OC) ([2]; obese dogs, 0.2 mg/kg): lower than those of the control (OC)
- glucose (GLU) concentration compared to the control (OC) ([2]; obese dogs, 1 mg/kg): significantly lower
- serum triglyceride (TG) concentrations compared to the control ([2]; obese dogs, 0.2, 0.5 and 1 mg/kg groups): significantly lower than that of the control
- fasting glucose compared to the control (OC) ([2]; obese dogs, all administration groups): decreased compared to the control (OC)
- ALB [2, 22]: 3.48 ± 0.42 g/dL
- ALP [2, 22]: 84.60 ± 63.96 IU/L
- ALT [2, 22]: 18.84 ± 4.00 IU/L
- AST [2, 22]: 31.00 ± 1.83 IU/L
- BUN [2, 22]: 18.70 ± 10.29 mg/dL
- CPK [2, 22]: 111.12 ± 30.97 IU/L
- CRE [2, 22]: 0.78 ± 0.21 mg/dL
- GGT [2, 22]: 7.80 ± 1.64 IU/L
- Glu [2, 22]: 107.20 ± 10.85 mg/dL
- TC [2, 22]: 183.84 ± 36.01 mg/dL
- TP [2, 22]: 6.78 ± 0.66 g/dL
- TG ([2]; obese dogs, 0.2 mg/kg once a day oral for 8 weeks, 0.2 mg/kg): 142.00 ± 95.55 mg/dL
- TG ([2]; obese dogs, 0.2 mg/kg once a day oral for 8 weeks, listed as enavogliflozin, 0.2 mg/kg): 142.00 ± 95.55 mg/dL
- ALB [2, 23]: 2.95 ± 0.19 g/dL
- ALP [2, 23]: 146.20 ± 121.67 IU/L
- ALT [2, 23]: 36.80 ± 14.43 IU/L
- AST [2, 23]: 31.84 ± 12.92 IU/L
- BUN [2, 23]: 22.25 ± 8.64 mg/dL
- CPK [2, 23]: 136.50 ± 42.99 IU/L
- CRE [2, 23]: 0.82 ± 0.15 mg/dL
- GGT [2, 23]: 9.46 ± 5.37 IU/L
- Glu [2, 23]: 97.77 ± 10.19 mg/dL
- TC [2, 23]: 298.00 ± 71.14 mg/dL
- TP [2, 23]: 6.43 ± 0.32 g/dL
- TG ([2]; obese dogs, 0.5 mg/kg once a day oral for 8 weeks, 0.5 mg/kg): 133.86 ± 70.19 mg/dL
- TG ([2]; obese dogs, 0.5 mg/kg once a day oral for 8 weeks, listed as enavogliflozin, 0.5 mg/kg): 133.86 ± 70.19 mg/dL
- ALB [2, 24]: 2.92 ± 0.29 g/dL
- ALP [2, 24]: 186.20 ± 184.59 IU/L
- ALT [2, 24]: 38.60 ± 19.72 IU/L
- AST [2, 24]: 110.00 ± 167.92 IU/L
- BUN [2, 24]: 23.44 ± 13.17 mg/dL
- CPK [2, 24]: 260.40 ± 126.79 IU/L
- CRE [2, 24]: 0.92 ± 0.36 mg/dL
- GGT [2, 24]: 21.60 ± 29.36 IU/L
- Glu [2, 24]: 94.00 ± 13.47 mg/dL
- TC [2, 24]: 309.00 ± 129.40 mg/dL
- TP [2, 24]: 6.14 ± 0.54 g/dL
- TG ([2]; obese dogs, 1 mg/kg once a day oral for 8 weeks, 1 mg/kg): 282.60 ± 419.03 mg/dL
- TG ([2]; obese dogs, 1 mg/kg once a day oral for 8 weeks, listed as enavogliflozin, 1 mg/kg): 282.60 ± 419.03 mg/dL
